Measured values published in patent US9512178B2, “Neurogenic brain-derived neurotrophic factor peptides” (Research Foundation for Mental Hygiene, Inc., priority 2012, dated 2016).
Entries after “also recorded” stand apart in the source; their conditions may differ.

Assays:
TrkC = target: T1, TrkC (Homo sapiens, UniProt Q16288); assay: Trk phosphorylation and TrkC expression in TrkC stably-expressing NIH-3T3 cells; type: cell-based; details: for expression of TrkC: 1 μM; for activation of TrkC receptor: peptides 1 μM
T1 construct: expressed in transfected cells; host or cells: NIH-3T3 fibroblasts
T1 sequence (Q16288 32-839, species assumed): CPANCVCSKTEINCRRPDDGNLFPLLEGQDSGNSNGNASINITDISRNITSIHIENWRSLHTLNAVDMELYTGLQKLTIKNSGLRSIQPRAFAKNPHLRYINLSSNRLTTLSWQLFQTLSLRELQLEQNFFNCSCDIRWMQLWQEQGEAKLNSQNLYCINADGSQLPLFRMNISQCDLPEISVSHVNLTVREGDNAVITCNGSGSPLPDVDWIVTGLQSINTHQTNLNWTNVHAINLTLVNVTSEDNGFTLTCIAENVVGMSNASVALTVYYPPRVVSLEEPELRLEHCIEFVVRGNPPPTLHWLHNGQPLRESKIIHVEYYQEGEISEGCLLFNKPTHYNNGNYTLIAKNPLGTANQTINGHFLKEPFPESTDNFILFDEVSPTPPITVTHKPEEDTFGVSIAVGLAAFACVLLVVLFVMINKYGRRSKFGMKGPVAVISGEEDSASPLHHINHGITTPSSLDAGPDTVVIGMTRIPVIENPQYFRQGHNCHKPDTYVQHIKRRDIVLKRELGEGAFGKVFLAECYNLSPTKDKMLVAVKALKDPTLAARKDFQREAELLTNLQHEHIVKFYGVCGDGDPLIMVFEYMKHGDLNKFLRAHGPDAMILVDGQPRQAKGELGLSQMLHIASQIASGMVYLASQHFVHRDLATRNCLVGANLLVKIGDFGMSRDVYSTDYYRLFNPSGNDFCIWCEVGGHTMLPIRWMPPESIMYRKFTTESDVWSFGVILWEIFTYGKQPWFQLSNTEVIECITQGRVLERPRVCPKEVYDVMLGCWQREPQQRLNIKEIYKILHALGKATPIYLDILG

[1] = tested on: primary E18 hippocampal cells; assay: Rescue of H2O2-induced neurotoxicity (LDH assay); type: cell-based, mouse
Method: Evaluation of cell death and cell viability was performed using the LDH kit (Promega, Madison Wis., USA), following manufactures instructions. Percentages of cell death and cell viability were plotted separately.
In order to evaluate the potential neuroprotective effect of BDNF peptides, the primary E18 hippocampal cells were challenged with 0, 60, 80 and 100 μM H2O2 for 6 hours, and then cells were washed with culture medium and fresh culture medium was added containing the peptides B-5 or B-3 or BDNF or BDNF plus B-3 (see FIGS. 4A and 4B). After 24 hours, the cell viability was assayed by the LDH method.

[2] = tested on: E18 primary hippocampal neurons; assay: Western blots of neuronal markers, densitometry; type: cell-based, mouse; details: 5 days
Method: Following treatment in 6-well plates, cells were washed 2× in glucose buffered saline, GBS (5.4 mM KCl, 138 mM NaCl, 22 mM glucose, and 2 mM Na—KPO pH 7.2), and then lysed by 5 min incubation on ice in 100 or 150 μl of ice-cold RIPA buffer (PBS, 1% w/v NP-40 from Fisher Scientific, 0.1% w/v SDS, and 0.5% w/v sodium desoxycholate) containing 1 mM AEBSF (Gold Biotechnology, St. Louis, Mo., USA), 10 μg/ml aprotinin (Sigma-Aldrich, St. Louis, Mo., USA), and 20 μg/ml of leupeptin and pepstatin (US Biochemicals, Cleveland, Ohio, USA), and phosphatase inhibitors: NaF, Na orthovanadate, (3-glycerophosphate, and microcystein (Sigma-Aldrich, St. Louis, Mo., USA). Extracts were prepared by collecting and pooling a minimum of 2 wells by scraping, and lysates were centrifuged at 20,000×g for 10 min at 4° C. Protein concentration of each cell lysate was determined using the BCA kit (Thermo Scientific, Rockford, Ill., USA). The lysates (7.5-20 μg total protein) were separated on 10% SDS-PAGE gels (except for BDNF where 12% gels were employed) and transferred to 0.45 μm PVDF membrane (Pall, Pensacola, Fla., USA) for probing with antibodies as noted. Blots were blocked for 1 hr at 37° C. in 1×TBST (0.05% Tween 20 in TBS) containing 5% w/v blotting grade dry milk (Bio-rad, Hercules, Calif., USA), incubated in primary antibody overnight in blocking buffer at 4° C., washed 3×10 min in TBST at room temperature, followed by incubation with secondary antibody, i.e., peroxidase-conjugated anti-mouse or anti rabbit IgG (Jackson ImmunoResearch Laboratories, West Grove, Pa., USA) diluted in blocking buffer. Blots were washed 3×10 min in TBST and immunoreactive protein bands were visualized with enhanced chemiluminescence (ECL) reagents (Pierce, Rockford, Ill., USA). The ECL films of the blots were scanned and analyzed using Multi Gauge software version 3.0 (Fujifilm, Tokyo, Japan).
The following primary antibodies were used: rabbit polyclonal anti-NFM (1:1000; Chemicon/Millipore, Billerica, Mass., USA); mouse monoclonal anti-NeuN, clone A60 (1:500; Millipore, Billerica, Mass., USA); rabbit polyclonal anti-Tuj-1, (3—III-tubulin (Covance; 1:800, Emeryville, Calif., USA); mouse monoclonal SMI 52 to the adult isoforms of MAP-2, MAP2a,b (1:1000; Covance, Emeryvilly, Calif., USA); rabbit polyclonal anti-Synapsin I (1:2000; Stressgen, Farmingdale, N.Y., USA); rabbit monoclonal anti-PSD95 (1:1000; Cell signaling, Danvers, Mass., USA); anti tau 92e (1:10000); mouse monoclonal anti-BDNF (1:1000; Calbiochem, Gibbstown, N.J., USA); rabbit polyclonal anti-TrkB (total) (1:500; Santa Cruz Biotechnology, Santa Cruz, Calif., USA); rabbit polyclonal anti-pTrkB (Tyr706) (1:400; Santa Cruz Biotechnology, Santa Cruz, Calif., USA), TrkC (1:1000; Cruz Biotechnology, Santa Cruz, Calif., USA); and pTrkY490 (1:500; Upstate USA Inc., Charlottesville, Va., USA). For loading control, the blots were developed with rabbit polyclonal antibody to GAPDH (1:2000; Santa Cruz Biotechnology, Santa Cruz, Calif., USA).
To biochemically study the effect of BDNF peptides in inducing expression of neuronal markers, protein samples were recovered from cells treated with peptides B-5, B-4, B-3, or vehicle for five days. As a positive control, protein samples were collected from cells treated with BDNF at 20 ng/ml (0.79 nM) or 100 ng/ml (3.95 nM) (FIG. 3D, E). Western blots of the cell lysates were developed with antibodies to Synapsin I (presynaptic marker), PSD95 (postsynaptic marker), NeuN (late neuronal marker), NFM (early neuronal marker), MAP2 (dendritic marker), 0-IIItubulin (early neuronal marker), and tau 92e (axonal marker).

TrkB receptor = target: T2, TrkB receptor (Homo sapiens, UniProt Q16620); assay: TrkB expression in TrkB stably-expressing NIH-3T3 fibroblasts, time course; type: cell-based; details: 1 μM, 60 min
T2 construct: host or cells: NIH 3T3 fibroblasts, G418 selection
T2 sequence (Q16620 32-822): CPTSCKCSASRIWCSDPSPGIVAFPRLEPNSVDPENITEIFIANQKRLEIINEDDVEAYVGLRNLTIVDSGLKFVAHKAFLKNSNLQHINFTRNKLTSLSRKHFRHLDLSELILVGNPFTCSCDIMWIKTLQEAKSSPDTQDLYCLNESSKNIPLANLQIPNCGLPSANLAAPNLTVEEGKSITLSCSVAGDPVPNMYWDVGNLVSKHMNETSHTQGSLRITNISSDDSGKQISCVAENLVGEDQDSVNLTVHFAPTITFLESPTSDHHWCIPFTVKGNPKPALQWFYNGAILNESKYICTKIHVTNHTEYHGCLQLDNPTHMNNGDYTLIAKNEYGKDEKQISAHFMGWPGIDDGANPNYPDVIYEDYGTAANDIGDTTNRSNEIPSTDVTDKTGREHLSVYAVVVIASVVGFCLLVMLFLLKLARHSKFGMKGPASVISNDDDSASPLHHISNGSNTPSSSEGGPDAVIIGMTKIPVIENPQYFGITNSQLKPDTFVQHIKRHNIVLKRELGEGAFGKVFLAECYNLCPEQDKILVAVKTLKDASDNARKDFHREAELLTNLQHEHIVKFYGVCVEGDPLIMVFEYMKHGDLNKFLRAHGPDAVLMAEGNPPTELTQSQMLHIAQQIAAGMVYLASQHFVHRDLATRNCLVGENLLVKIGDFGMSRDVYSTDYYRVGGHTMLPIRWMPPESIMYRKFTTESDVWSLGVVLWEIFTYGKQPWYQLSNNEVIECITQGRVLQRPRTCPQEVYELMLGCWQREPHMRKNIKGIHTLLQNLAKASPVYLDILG
Method: To study the activation of the TrkB receptor with BDNF and/or with the peptides, NIH 3T3 cells were used, stably transfected with the TrkB receptor (obtained from Montreal Neurological Institute, Montreal, Quábec, Canada). The cell culture medium used for this cell line was: DMEM-high glucose, 10 percent normal calf serum, 1 percent glutamax, 1 percent sodium pyruvate, 1 percent penicillin-streptomycin; supplemented with the selection antibiotic G418 in a final concentration of 100 μg/ml (to guaranty the stable expression of the Trkb transgene). All Medium components were purchase from Gibco Life Technologies, Invitrogen, Grand Island, N.Y., USA.
The NIH 3T3 fibroblasts stably expressing the TrkB receptor were vehicle-treated or treated with BDNF peptides B-5 and B-3 at a concentration of 1 μM or with BDNF at a concentration of 20 ng/ml (0.79 nM) for 5, 15 or 60 min (FIG. 5E, F). […] The effect was time-dependent and was pronounced at 60 min treatment. […] The effect on the increase in expression of TrkB by Peptides B-5 and B-3 could be the way in which the peptides potentiate the BDNF pathway to avoid saturation of the receptors, and/or promote their neurotrophic effect by increasing the expressions of both BDNF (FIGS. 5A and 5B) and TrkB (FIGS. 5C through 5F).

[3] = 80 μM H2O2 6 h, then treatment 24 h

Row | Substance | expression of TrkC (TrkC) | activation of TrkC receptor (TrkC) | potentiation of the neuroprotective effect of BDNF ([1]; after H2O2 exposure, combined with BDNF) | neuroprotective effect of the peptide alone ([1]; after H2O2 exposure, without BDNF) | expression of NeuN (Western blot) ([2]; 0.1 μM) | expression of NeuN (Western blot) ([2]; 1 μM) | level of tau (92e antibody, Western blot) [2] | expression of the receptor TrkB (TrkB receptor) | cell viability (LDH) ([1]; 60 μM H2O2 6 h, then treatment 24 h) | cell death (LDH) [1, 3] | cell viability (LDH) [1, 3] | MAP2 expression (Western blot) ([2]; 0.1 μM) | NFM expression (Western blot) ([2]; 0.1 μM) | expression of PSD95 (Western blot) ([2]; 1 μM) | levels of 0-IIItubulin (Western blot) ([2]; 1 μM, vs vehicle)
1 | Ac-S-KKR-CONH2 [Peptide B-3] | neither BDNF (20 ng/mL) nor peptides B-5 (1 μM) and B-3 (1 μM) were able to modify the expression of TrkC | neither the peptides nor BDNF were able to activate this receptor | significantly potentiated; also recorded: potentiates the neuroprotective effect of BDNF | not sufficient to exert a significant effect | increased the expression of NeuN | increased the expression of NeuN | Neither BNDF nor peptides B-3, B-4 or B-5 had any significant effect | marked increase | – | – | – | – | – | – | –
2 | Ac-I-K-R-G-CONH2 [Peptide B-5] | neither BDNF (20 ng/mL) nor peptides B-5 (1 μM) and B-3 (1 μM) were able to modify the expression of TrkC | neither the peptides nor BDNF were able to activate this receptor | – | – | – | increased the expression of NeuN | Neither BNDF nor peptides B-3, B-4 or B-5 had any significant effect | marked increase | significantly increased the cell viability | significantly reduced cell death; also recorded: moderate effect in reducing the percentage of cell death | significantly increased the cell viability | increased significantly | increased NFM expression | significant increment | this increase was not significant
